# Laboratory results from patent publication US20250171459A1, “2-METHYL-4',5'-DIHYDROSPIRO[PIPERIDINE-4,7'-THIENO[2,3-C]PYRAN] DERIVATIVES AS INHIBITORS OF APOL1 AND METHODS OF USING SAME” (Vertex Pharmaceuticals Incorporated, priority 2022, published 2025).
# Biological target: T1, APOL1 (Homo sapiens, UniProt O14791)
# T1 sequence (O14791 1-398 S342G/I384M): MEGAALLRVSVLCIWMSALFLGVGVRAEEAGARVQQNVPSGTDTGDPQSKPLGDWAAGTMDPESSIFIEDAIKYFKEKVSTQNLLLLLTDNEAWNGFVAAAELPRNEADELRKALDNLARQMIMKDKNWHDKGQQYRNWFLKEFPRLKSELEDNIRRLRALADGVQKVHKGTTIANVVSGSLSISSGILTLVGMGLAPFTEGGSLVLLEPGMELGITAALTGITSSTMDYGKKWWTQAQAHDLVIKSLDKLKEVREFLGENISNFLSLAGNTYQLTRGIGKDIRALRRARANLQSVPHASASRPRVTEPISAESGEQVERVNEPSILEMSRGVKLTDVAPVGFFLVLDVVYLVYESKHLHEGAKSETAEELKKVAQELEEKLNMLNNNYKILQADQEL
# Assay: MultiTox-Fluor Multiplex Cytotoxicity Assay in tet-inducible APOL1 T-REx-HEK293 cells (cell rescue, ratio of dead to live cells)
# Assay type: cell-based
# Conditions: tet-inducible transgenic APOL1 T-REx-HEK293 cell lines, 50 ng/mL tet, 24 hours; read-out: IP50 (i.e., IC50 for cell proliferation)
# Outline: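 T-REx-HEK293 cells with tet-inducible APOL1 were treated with compound (10 μM top, 10-point 3-fold dilution, duplicate) plus 50 ng/mL tetracycline for 24 h at 37° C, in DMEM with 2% tet-free FBS. MultiTox-Fluor protease signals gave a dead/live ratio, normalized to no tet (100% viability) and tet alone (0%).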
smiles,measurement,value
CCc1cc2c(s1)CCO[C@@]21CCN(Cc2cn(CC3(C(O)C(C)C)CC3)nn2)[C@@H](C)C1 (stereo partly shown) [Compound 74],IC50,100 to 500 nM
COc1cc(CN2CC[C@]3(C[C@@H]2C)OCCc2cc(Cl)sc23)ccc1OCC(N)=O [Compound 663],IC50,< 100 nM
CCc1cc2c(s1)CCO[C@@]21CCN(Cc2cnc(OCC3(N)CCOC3)nc2)[C@@H](C)C1 (stereo partly shown) [Compound 215],IC50,< 100 nM
"CCc1cc2c(s1)[C@]1(CCN(Cc3cn(CCS(C)(=O)=O)nn3)[C@@H](C)C1)OCC2O (stereo partly drawn) [Compound 1038, (2′S,7R)-2-ethyl-2′-methyl-1′-[[1-(2-methylsulfonylethyl)triazol-4-yl]methyl]spiro[4,5-dihydrothieno[2,3-c]pyran-7,4′-piperidine]-4-ol]",IC50,< 100 nM
Cc1cn2nc(CN3CC[C@]4(C[C@@H]3C)OCCc3cc(Cl)sc34)cc2c(NC2CC2)n1 [Compound 637],IC50,< 100 nM
C[C@H]1C[C@@]2(CCN1Cc1cn(CC(C)(C)CO)nn1)OC[C@](O)(C(F)F)c1cc(Cl)sc12 [Compound 838],IC50,500 to 1000 nM
CCc1cc2c(s1)CCO[C@@]21CCN(Cc2cn(C3CCCN(C(C)=O)C3)nn2)[C@@H](C)C1 (stereo partly shown) [Compound 61],IC50,100 to 500 nM
CCc1cc2c(s1)CCO[C@@]21CCN(Cc2cn(CC3COCCO3)nn2)[C@@H](C)C1 (stereo partly shown) [Compound 136],IC50,< 100 nM
"C[C@H]1C[C@@]2(CCN1Cc1cnn(CCS(C)(=O)=O)c1)OCCc1c2sc(C(F)F)c1CO [Compound 764, [(2′S, 7R)-2-(difluoromethyl)-2′-methyl-1′-[[1-(2-methylsulfonylethyl)pyrazol-4-yl]methyl]spiro[4,5-dihydrothieno[2,3-c]pyran-7,4′-piperidine]-3-yl]methanol]",IC50,< 100 nM
C[C@H]1C[C@@]2(CCN1Cc1ncn3ccccc13)OCCc1c2sc(Cl)c1CO [Compound 740],IC50,500 to 1000 nM
CCc1cc2c(s1)CCO[C@@]21CCN(Cc2cn([C@H]3C[C@H](S(C)(=O)=O)C3)nn2)[C@@H](C)C1 [Compound 18],IC50,< 100 nM
CCc1cc2c(s1)CCO[C@@]21CCN(Cc2cnc(OCC3(N)CCCCC3)nc2)[C@@H](C)C1 [Compound 227],IC50,< 100 nM
CCc1cc2c(s1)CCO[C@@]21CCN(Cc2cnn(CCO)c2)[C@@H](C)C1 [Compound 269],IC50,< 100 nM
"C[C@H]1C[C@@]2(CCN1C[C@H](O)C(N)=O)OCCc1cc(Cl)sc12 [Compound 708, (2S)-3-[(2′S, 7R)-2-chloro-2′-methyl-spiro[4,5-dihydrothieno[2,3-c]pyran-7,4′-piperidine]-1′-yl]-2-hydroxy-propanamide]",IC50,100 to 500 nM
CCc1cc2c(s1)CCO[C@@]21CCN(Cc2cn(CCc3ncn[nH]3)nn2)[C@@H](C)C1 [Compound 67],IC50,< 100 nM
CCc1cc2c(s1)CCOC21CCN(Cc2cn(CC(O)CS(C)(=O)=O)nn2)C(C)C1 (stereo not shown) [Compound 91],IC50,< 100 nM
CCc1cc2c(s1)CCO[C@@]21CCN(Cc2cn(CCn3ccnc3)nn2)[C@@H](C)C1 [Compound 31],IC50,100 to 500 nM
CCc1cc2c(s1)CCOC21CCN(Cc2ccc(C(=O)NC(CO)CO)nc2)CC1 [Compound 1057],IC50,100 to 500 nM
CCc1cc2c(s1)CCO[C@@]21CCN(Cc2cn(CC3CN(C)C(=O)CO3)nn2)[C@@H](C)C1 (stereo partly shown) [Compound 174],IC50,100 to 500 nM
"C[C@H]1C[C@@]2(CCN1Cc1cn(CCS(C)(=O)=O)nn1)OCCc1c2sc(C(F)(F)F)c1Cl [Compound 1010, (2′S, 7R)-3-chloro-2′-methyl-1′-[[1-(2-methylsulfonylethyl)triazol-4-yl]methyl]-2-(trifluoromethyl)spiro[4,5-dihydrothieno[2,3-c]pyran-7,4′-piperidine]]",IC50,< 100 nM
C[C@H]1C[C@@]2(CCN1Cc1cnn(CC3CCOCC3)c1)OCCc1c2sc(C(F)(F)F)c1CO [Compound 905],IC50,< 100 nM
"C[C@@H]1C[C@]2(CCN1Cc1cn(CC(O)C(C)(C)O)nn1)OCCc1cc(Cl)sc12 (stereo in doubt) [Compound 626, 1-(4-(((2R,4S)-2′-chloro-2-methyl-4′,5′-dihydrospiro[piperidine-4,7′-thieno[2,3-c]pyran]-1-yl)methyl)-1H-1,2,3-triazol-1-yl)-3-methylbutane-2,3-diol]",IC50,< 100 nM
CCc1cc2c(s1)CCO[C@@]21CCN(Cc2cc(C)on2)[C@@H](C)C1 [Compound 287],IC50,< 100 nM
Cc1cncc(N2CCC(CN3CC[C@]4(C[C@@H]3C)OC[C@H](O)c3cc(Cl)sc34)CC2)n1 [Compound 816],IC50,500 to 1000 nM
C[C@H]1C[C@@]2(CCN1Cc1cnn(CC3CCOCC3)c1)OCCc1c2sc(Cl)c1CO [Compound 761],IC50,100 to 500 nM
CCc1cc2c(s1)CCO[C@@]21CCN(Cc2cn(C(CC)C(=O)N3CCOCC3)nn2)[C@@H](C)C1 (stereo partly shown) [Compound 172],IC50,100 to 500 nM
CCc1cc2c(s1)CCO[C@@]21CCN(Cc2cnc(N[C@H]3CCNC3=O)nc2)[C@@H](C)C1 [Compound 207],IC50,< 100 nM
CCc1cc2c(s1)CCO[C@@]21CCN(C[C@H]2C[C@@H](NS(=O)(=O)c3cccc(OC)c3)C2)[C@@H](C)C1 [Compound 396],IC50,< 100 nM
CCc1cc2c(s1)CCO[C@@]21CCN(C[C@H](O)c2ccccc2)[C@@H](C)C1 [Compound 246],IC50,< 100 nM
CCc1cc2c(s1)CCO[C@@]21CCN(C[C@H]2C[C@@H](NC(=O)OC(C)C)C2)[C@@H](C)C1 [Compound 376],IC50,< 100 nM
C[C@H]1C[C@@]2(CCN1Cc1cnn(Cc3nnc[nH]3)c1)OCCc1c2sc(C(F)(F)F)c1CO [Compound 920],IC50,100 to 500 nM
C[C@H]1C[C@@]2(CCN1Cc1cn(CC(CO)CO)nn1)OCCc1cc(Cl)sc12 [Compound 628],IC50,100 to 500 nM
CCc1cc2c(s1)CCO[C@@]21CCN(Cc2cn(CC3CCO3)nn2)[C@@H](C)C1 (stereo partly shown) [Compound 33],IC50,< 100 nM
"C[C@H]1C[C@@]2(CCN1Cc1cnn(C[C@@H](O)C(N)=O)c1)OC[C@@H](O)c1cc(C(F)(F)F)sc12 [Compound 992, (2R)-2-hydroxy-3-[4-[[(2′S,4S,7R)-4-hydroxy-2′-methyl-2-(trifluoromethyl)spiro[4,5-dihydrothieno[2,3-c]pyran-7,4′-piperidine]-1′-yl]methyl]pyrazol-1-yl]propanamide]",IC50,< 100 nM
CCc1cc2c(s1)CCO[C@@]21CCN(Cc2cn(CCc3cnccn3)nn2)[C@@H](C)C1 [Compound 43],IC50,100 to 500 nM
C[C@H]1C[C@@]2(CCN1Cc1cn(CC(O)C(C)(C)O)nn1)OCCc1c2sc(C(F)(F)F)c1CO (stereo partly shown) [Compound 1005],IC50,< 100 nM
"CCc1sc2c(c1Br)[C@]1(CCN(Cc3cn(CCS(C)(=O)=O)nn3)[C@@H](C)C1)OCC2 [Compound 526, (2′S,4R)-3-bromo-2-ethyl-2′-methyl-1′-[[1-(2-methylsulfonylethyl)triazol-4-yl]methyl]spiro[6,7-dihydrothieno[3,2-c]pyran-4,4′-piperidine]]",IC50,100 to 500 nM
C[C@H]1C[C@@]2(CCN1Cc1cccc(F)c1)OCCc1c2sc(Cl)c1CO [Compound 756],IC50,100 to 500 nM
CCc1cc2c(s1)CCO[C@@]21CCN(Cc2cn(Cc3cnn(C)c3)nn2)[C@@H](C)C1 [Compound 49],IC50,< 100 nM
CCc1cc2c(s1)CCO[C@@]21CCN(CC2CN(C(=O)C3(O)CCOCC3)C2)[C@@H](C)C1 [Compound 437],IC50,< 100 nM
COC(=O)N[C@H]1C[C@@H](CN2CC[C@]3(C[C@@H]2C)OCCc2cc(CC(F)F)sc23)C1 [Compound 554],IC50,< 100 nM
C[C@H]1C[C@@]2(CCN1Cc1cnn(CC(O)C3(O)CCOC3)c1)OCCc1c2sc(C(F)(F)F)c1CO (stereo partly shown) [Compound 941],IC50,< 100 nM
C[C@H]1C[C@@]2(CCN1CC(O)C(N)=O)OCCc1cc(CC(F)F)sc12 (stereo partly shown) [Compound 596],IC50,< 100 nM
"CC1CO[C@@]2(CCN(Cc3cn(CCS(C)(=O)=O)nn3)[C@@H](C)C2)c2cc(C(F)(F)F)sc21 (stereo partly drawn) [Compound 534, (2S,4R)-2,7′-dimethyl-1-((1-(2-(methylsulfonyl)ethyl)-1H-1,2,3-triazol-4-yl)methyl)-2′-(trifluoromethyl)-6′,7′-dihydrospiro[piperidine-4,4′-thieno[3,2-c]pyran]]",IC50,< 100 nM
CCc1cc2c(s1)CCO[C@@]21CCN(Cc2cn(Cc3cnccn3)nn2)[C@@H](C)C1 [Compound 38],IC50,100 to 500 nM
C[C@H]1C[C@@]2(CCN1Cc1cnn(CC(O)c3ccccn3)c1)OCCc1c2sc(C(F)(F)F)c1CO (stereo partly shown) [Compound 939],IC50,< 100 nM
Cc1cc(CN2CC[C@]3(C[C@@H]2C)OCCc2cc(CC(F)F)sc23)no1 [Compound 584],IC50,< 100 nM
C[C@H]1C[C@@]2(CCN1Cc1cnn(CC(O)C3CCOCC3)c1)OCCc1c2sc(C(F)(F)F)c1CO (stereo partly shown) [Compound 959],IC50,< 100 nM
CCc1cc2c(s1)CCO[C@@]21CCN(CC2CN(C(=O)[C@@H]3CSC(=O)N3)C2)[C@@H](C)C1 [Compound 467],IC50,< 100 nM
CCc1cc2c(s1)CCO[C@@]21CCN(Cc2cnn(CCS(C)(=O)=O)c2)[C@@H](C)C1 [Compound 268],IC50,< 100 nM
C[C@H]1C[C@@]2(CCN1Cc1cnn(CC(=O)NC3CC3)c1)OC[C@@H](O)c1cc(C(F)(F)F)sc12 [Compound 928],IC50,< 100 nM
CCc1cc2c(s1)CCO[C@@]21CCN(CC2CN(C(=O)C3C4COCC43)C2)[C@@H](C)C1 (stereo partly shown) [Compound 451],IC50,100 to 500 nM
